SMILES strings stand for the structures. Like-named read-outs stand apart in the source and are kept apart here.

For series [1], the target named is c-Myc template DNA (c-myc quadruplex). Briefly: Quadruplex binding / stop assay (Taq polymerase arrest, capillary electrophoresis).
In the next series the test system is HeLa cells. Kind of series: MTS cell proliferation and/or cytotoxicity assay. In kind it is cell-based, Human. The essentials: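 HeLa cells seeded at 4,500 cells/well, exposed to compounds from day 1 for 3 days at 37 °C, 5% CO2. Viability by MTS/PMS (20:1) with 4 h incubation, absorbance at 490 nm. Values are concentrations giving 50% antiproliferative response.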

In series [2] the test system is Chinese Hamster Ovary Cells (CHO). Kind of series: In vitro chromosome aberration assay (incl. mitotic index). The series is classed as cell-based.
Setting [3] is: read-out: Stop Data c-Myc μM, concentration at which 50% of the DNA was arrested (arrested:full-length 1:1).
[4] abbreviates: concentration at which 50% of antiproliferative cell response is seen, 3 days incubation, read-out: MTS Data Hella.
The mark [5] stands for this setting: read-out: S DATA, Table 1D, stop assay data.
[6] abbreviates: Homo sapiens, HeLa, HeLa cells, MTS, read-out: Hela MTS.
Where [7] appears, read: Homo sapiens, HeLa, 72 h, concentration at which 50% of antiproliferative cell response is seen, 3 days incubation, read-out: MTS Data Hella.
[8] abbreviates: CHO, positive control high dose (H).
Where [9] appears, read: CHO, positive control low dose (L).
The mark [10] stands for this setting: CHO, positive control low dose (L), 20 hrs.

For `N[C@H]1CCN(c2c(F)cc3c(=O)c(C(=O)NCCN4CCCC4)cn4c3c2Oc2ccccc2-4)C1` [compound 35], the IC50 came out at 3 µM in series [1] (setting [3]) and 0.21 µM with HeLa cells (setting [4]).
As to `CC1(C)CC(NC(=O)c2cn3c4c(c(N5CC6CCCNC6C5)c(F)cc4c2=O)Oc2cc4ccccc4cc2-3)CC(C)(C)N1` (stereo not shown) [compound 1642], the IC50 stood at 0.5 µM in series [1] (setting [5]) and 0.18 µM with HeLa cells (setting [6]).
For the molecule `CN1CCC(Nc2c(F)cc3c(=O)c(C(=O)NCCC4CCCN4C)cn4c3c2Oc2cc3ccccc3cc2-4)CC1` (stereo not shown) [compound 1690], the IC50 in series [1] (setting [5]) came out at 0.75 µM; with HeLa cells (setting [6]), 0.31 µM.
For `CCN(CC)CCCC(C)NC(=O)c1cn2c3c(c(N4CC5CCCNC5C4)c(F)cc3c1=O)Oc1cc3ccccc3cc1-2` (stereo not shown) [compound 1727], the values for the IC50 (in series [1] (setting [5]); in the series with HeLa cells (setting [6])) were 0.75 µM and 0.36 µM, respectively.
In the same order, the values of `O=C(NCCN1CCCC1)c1cn2c3c(c(N4CC5CCCNC5C4)ccc3c1=O)Oc1cc3ccccc3cc1-2` (stereo not shown) [compound 1732] are 0.375 µM and 0.2 µM.
`CN1CCCC1CCNc1c(F)cc2c(=O)c(C(=O)NCCN3CCCC3)cn3c2c1Oc1c-3ccc2ccccc12` (stereo not shown) [compound 497]: the IC50 in series [1] (setting [3]) turned out to be 0.41 µM; in the series with HeLa cells (setting [7]), 2.1 µM.
As for `CN1CCCC1CCNC(=O)c1cn2c3c(c(NC[C@H]4CCCO4)c(F)cc3c1=O)Oc1cc3ccccc3cc1-2` (stereo partly shown) [compound 38], the results for the IC50 (in series [1] (setting [3]); in the series on HeLa cells (setting [4])) were 2.5 µM and 0.26 µM, respectively.
Turning to `CN1CCCC1CCNC(=O)c1cn2c3c(c(NCCC4CCCN4C)c(F)cc3c1=O)Oc1cc3c(cc1-2)oc1ccccc13` (stereo not shown) [compound 372], the IC50 in series [1] (setting [3]) worked out at 0.75 µM; in the series on HeLa cells (setting [7]), 3.4 µM.
With `CN1CCC[C@H]1CCNC(=O)c1cn2c3c(c(N4CCC(c5cnccn5)C4)c(F)cc3c1=O)Oc1cc3ccccc3cc1-2` (stereo partly shown) [compound 1742], the IC50 in series [1] (setting [5]) amounted to 0.85 µM; in the series with HeLa cells (setting [6]), 3.3 µM.
Regarding `CN1CCCC1CCNC(=O)c1cn2c3c(c(NC[C@H]4CCCO4)c(F)cc3c1=O)Oc1cc3ccccc3cc1-2` (stereo partly shown) [compound 34], the IC50 in series [1] (setting [3]) was found to be 3 µM; in the series on HeLa cells (setting [7]), 0.28 µM.
For `CN1CCCC1CCNC(=O)c1cn2c3c(c(N4CCC(CCCC5CCNCC5)CC4)c(F)cc3c1=O)Oc1cc3ccccc3cc1-2` (stereo not shown) [compound 1494], the results for the IC50 (in series [1] (setting [5]); in the series on HeLa cells (setting [6])) were 0.375 µM and 0.31 µM, respectively.
Take `CN1CCCC1CCNC(=O)c1cn2c3c(c(N4CCC(N)C4)ccc3c1=O)Oc1cc3ccccc3cc1-2` (stereo not shown) [compound 529]: the values for the IC50 (in series [1] (setting [3]); in the series on HeLa cells (setting [7])) were 0.375 µM and 0.75 µM, respectively.
For `CN(C)CC(C)(C)CNC(=O)c1cn2c3c(c(N4CC5CCCNC5C4)c(F)cc3c1=O)Oc1cc3ccccc3cc1-2` (stereo not shown) [compound 493] the same measures were 0.44 µM and 0.4 µM.
`CO[C@@]12[C@H](COC(N)=O)C3=C(C(=O)C(C)=C(N)C3=O)N1C[C@@H]1N[C@@H]12` [MMC]: in series [2] (setting [8]), the “% CA 3 HRS” value came out at 42.0% and the “FI 3 HRS” value is listed as 14.0. Besides, in series [2] (setting [9]), the “% CA 3 HRS” value is on record as 20.3% and the “FI 3 HRS” value amounted to 6.8. Further, in series [2] (setting [10]), the “% CA 20 HRS” value was 26.5% and the “FI 20 HRS” value turned out to be 8.8. The “% MI 20 HRS” value in series [2] (average mitotic index, positive control low dose (L), 20 hrs) came to 5%. For the same molecule, the “% MI” value in series [2] (average mitotic index, positive control low dose (L), first column (time not given)) is on record as 6%.
In the case of `CN(C)CCCCNc1c(F)cc2c(=O)c(C(=O)NCCC3CCCN3C)cn3c2c1Oc1cc2c(cc1-3)oc1ccccc12` (stereo not shown) [compound 366], the IC50 in series [1] (setting [3]) was determined as 0.75 µM; with HeLa cells (setting [7]), 3.7 µM.
With `CN1CCCC1CCNC(=O)c1cn2c3c(c(N4CC[C@@H](N)C4)c(F)cc3c1=O)Oc1cc3ccccc3cc1-2` (stereo partly shown) [compound 564], the IC50 in series [1] (setting [3]) came to 0.25 µM; with HeLa cells (setting [7]), 0.29 µM.
In the same order, the values of `CN1CCCC1CCNC(=O)c1cn2c3c(c(N4CCC(CCCC5CCNCC5)CC4)c(F)cc3c1=O)Oc1cc3ccccc3cc1-2` (stereo not shown) [compound 535] are 0.375 µM and 0.31 µM.
In the same order, the values of `CN(C)CCCCNC(=O)c1cn2c3cc4oc5cc([N+](=O)[O-])ccc5[nH]c4cc3oc3c(NCCN4CCCC4)c(F)cc(c1=O)c32` [compound 359] are 0.75 µM and 4.8 µM.
In the same order, the values of `O=C(NCCN1CCCC1)c1cn2c3c(c(NCCCN4CCOCC4)c(F)cc3c1=O)Oc1cc3c(cc1-2)-c1ccccc1C3` [compound 373] are 0.75 µM and 3.3 µM.
For the molecule `CN1CCN(CCCNc2c(F)cc3c(=O)c(C(=O)NCCCn4ccnc4)cn4c3c2Oc2cc3c(cc2-4)oc2ccccc23)CC1` [compound 481], the results for the IC50 (in series [1] (setting [3]); with HeLa cells (setting [7])) were 0.5 µM and 3.6 µM, respectively.
Turning to `CN(C)CCCCNc1c(F)cc2c(=O)c(C(=O)NCCN3CCOCC3)cn3c4cc5c(cc4oc1c23)c(=O)c1ccccc15` [compound 518], the figures for the IC50 (in series [1] (setting [3]); in the series on HeLa cells (setting [7])) were 0.375 µM and 2.2 µM, respectively.
With `NC1CCN(c2c(F)cc3c(=O)c(C(=O)O)cn4c5cc6c(=O)c7ccccc7c(=O)c6cc5oc2c34)C1` (stereo not shown) [compound 25], the IC50 was found to be 0.25 µM in series [1] (setting [3]) and 0.2 µM with HeLa cells (setting [7]).
As to `NC1CCN(c2c(F)cc3c(=O)c(C(=O)NCCN4CCCC4)cn4c3c2Oc2cc(Cl)ccc2-4)C1` (stereo not shown) [compound 1800], the IC50 came to 2.6 µM in series [1] (setting [5]) and 0.18 µM in the series on HeLa cells (setting [6]).
Regarding `CN1CCN(CCCNC(=O)c2cn3c4cc5c(cc4oc4c(N6CC[C@H](N)C6)c(F)cc(c2=O)c43)c(=O)c2ccccc25)CC1` [compound 520], the IC50 worked out at 0.375 µM in series [1] (setting [3]) and 1.9 µM with HeLa cells (setting [7]).
In the same order, the values of `CN(CCc1ccccn1)C(=O)c1cn2c3c(c(NCCCN4CCOCC4)c(F)cc3c1=O)Oc1cc3c(cc1-2)-c1ccccc1C3` [compound 307] are 1 µM and 3.1 µM.
As for `CN(C)CCCCNc1c(F)cc2c(=O)c(C(=O)NCCC3CCCN3C)cn3c4cc5c(cc4oc1c23)c(=O)c1ccccc15` (stereo not shown) [compound 501], the values for the IC50 (in series [1] (setting [3]); with HeLa cells (setting [7])) were 0.375 µM and 4.2 µM, respectively.
In the same order, the values of `CN(C)CCCCNC(=O)c1cn2c3c(c(N4CC5CCCNC5C4)c(F)cc3c1=O)Oc1cc3ccccc3cc1-2` (stereo not shown) [compound 548] are 0.375 µM and 0.1 µM.
In the same order, the values of `CN(C)CCCCNC(=O)c1cn2c3cc4c(=O)c5ccccc5c(=O)c4cc3oc3c(NCCN4CCCC4)c(F)cc(c1=O)c32` [compound 574] are 0.18 µM and 4 µM.
Consider `O=C(NCCN1CCCC1)c1cn2c3c(c(N4CC5CCCNC5C4)c(F)cc3c1=O)Oc1cc3ccccc3cc1-2` (stereo not shown) [compound 581], for which the IC50 is 0.18 µM in series [1] (setting [3]) and 0.3 µM with HeLa cells (setting [4]).
On to `O=C(NCCN1CCCC1)c1cn2c3c(c(N4CC5CCCNC5C4)ccc3c1=O)Oc1cc3ccccc3cc1-2` (stereo not shown) [compound 544], for which the IC50 stood at 0.375 µM in series [1] (setting [3]) and 0.2 µM in the series on HeLa cells (setting [7]).
Turning to `CN(C)CCCCNc1c(F)cc2c(=O)c(C(=O)NCCCN3CCOCC3)cn3c4cc5c(cc4oc1c23)c(=O)c1ccccc15` [compound 522], the IC50 was determined as 0.375 µM in series [1] (setting [3]) and 1.7 µM in the series on HeLa cells (setting [7]).
On to `CN(C)/C=N/CCCCNC(=O)c1cn2c3c(c(N4CC[C@@H](N)C4)c(F)cc3c1=O)Oc1cc3ccccc3cc1-2` [compound 503], for which the IC50 in series [1] (setting [3]) worked out at 0.375 µM; in the series with HeLa cells (setting [7]) it was 4 µM.
In the same order, the values of `CCN(CC)CCCC(C)NC(=O)c1cn2c3c(c(N4CC5CCCNC5C4)c(F)cc3c1=O)Oc1cc3ccccc3cc1-2` (stereo not shown) [compound 385] are 0.75 µM and 0.36 µM.
In the same order, the values of `CCN(CC)CCCC(C)NC(=O)c1cn2c3c(c(N4CCC(c5cnccn5)C4)ccc3c1=O)Oc1ccccc1-2` (stereo not shown) [compound 29] are 3 µM and 2 µM.
As to `NC(N)=NCCCCNC(=O)c1cn2c3c(c(N4CC[C@@H](N)C4)c(F)cc3c1=O)Oc1cc3ccccc3cc1-2` [compound 578], the IC50 in series [1] (setting [3]) was found to be 0.18 µM; in the series on HeLa cells (setting [7]), 0.58 µM.
In the same order, the values of `N[C@H]1CCN(c2c(F)cc3c(=O)c(C(=O)NCCCN4CCOCC4)cn4c5cc6c(cc5oc2c34)c(=O)c2ccccc26)C1` [compound 511] are 0.375 µM and 3.1 µM.
In the same order, the values of `CN1CCN(CCCNC(=O)c2cn3c4c(c(NCCC5CCCN5C)c(F)cc4c2=O)Oc2cc4c(cc2-3)oc2ccccc24)CC1` (stereo not shown) [compound 364] are 0.75 µM and 3.8 µM.
As to `O=C(NCCN1CCCC1)c1cn2c3c(c(SCCc4ccccn4)c(F)cc3c1=O)Oc1cc3ccccc3cc1-2` [compound 1782], the IC50 in series [1] (setting [5]) was found to be 3.3 µM; with HeLa cells (setting [6]), 2.1 µM.

The values are drawn from patent US7507727B2, “Substituted quinobenzoxazine analogs and methods of using thereof” (Cylene Pharmaceuticals, Inc., priority 2003, dated 2009).
